Several values for one entry are separate records, joined by “and”; a condition that tells them apart may be missing. Equal entries are not always repeated.
Assays:
[1] = system: GL261 glioblastoma in left striatum; assay: In vivo labeling of orthotopic GL261 glioblastoma after i.p. injection; design: species or system mice; details: 6 days after implantation, 6 h after injection, probe 10 18 μg, probe 11 5 μg
From the text: We used in vitro and in vivo cells from a mouse high grade glioma cell line, GL261[56]. Briefly, ten 2- to 3-month-old female C57BlC mice were stereotactically implanted under deep general anesthesia (isoflurane supplemented with nitrous oxide) with 1 × 10^5 GL261 glioblastoma cells. The cells were stereotactically inoculated through a burr hole by a Hamilton syringe into the left striatum (coordinates: 1 mm anteroposterior and 1 mm lateral from bregma, at a depth of 3 mm). All experimental procedures were conducted in accordance with the European Communities Council Directive of the 24th of November 1986 (86/609 EEC), with the Recommendation 18/06/2007, Dir. 2010/63/UE and with the Italian law for care and use of experimental animals (DL116/92) and were approved by the Italian Ministry of Health (prot. E669C.15) and by the Bioethical Committee of the University of Turin. All animals were housed under a 12-h light-dark cycle in an environmentally controlled room. All experiments were designed to minimize the numbers of animals used and their discomfort. In each experiment, animals with tumors were allocated to two groups and i.p. injected with probe 10 (18 μg) or probe 11 (5 μg). […] Quantitative and phenotypic evaluations were made on the images acquired with a Leica TCS SP5 confocal microscope. […]

[2] = Solubility in physiological buffer; format: physicochemical; details: among all five molecules
From the text: All five fluorescent compounds were firstly characterized for their solubility in physiological buffer and for their absorbance values. We then performed a 3D analysis using a TECAN SPARK to simultaneously evaluate the excitation and the emission wavelengths, that were supposed to be similar to the curcumin ones[48]. […] For these reasons, we decided to continue the biochemical characterization on Probe 10 and 11 using the selected parameters (Fig. 2). The fluorescent signal changes for both molecules upon binding to the target, were firstly evaluated with recombinant human ALDH1A3. […] To better characterized our fluorescent compounds, we tested their potential cross-reactivity toward the other two isoforms of the ALDH1A subfamily. […] In addition, a wide range of biologically relevant analytes were tested at a concentration of 100 μM in complex with a fixed concentration of 10 μM of the probe (either probe 10 or probe 11), to make sure that no potential off-target signals could affect the analysis. More specifically, we checked if there were abnormal fluorescence signals that could have been contributed by the presence of biologically relevant compounds, (e.g., biologically relevant amino acids), to buffers and molecules commonly used in experimental procedures.

[3] = system: patient-derived glioma cell 3060; assay: Fluorescent microscopy of probe in cells; format: cell-based, human; details: 10 µM
ALDH1A2 = target: T1, ALDH1A2 (Homo sapiens, UniProt O94788); assay: Enzymatic inhibition assay with acetaldehyde; format: biochemical; details: up to highest probe concentration
T1 construct: E. coli BL21 (DE3) were transformed with the full-length expression vector of each isoform; His-tag; made in house; host or cells: E. coli BL21 (DE3)
T1 sequence (O94788 1-518): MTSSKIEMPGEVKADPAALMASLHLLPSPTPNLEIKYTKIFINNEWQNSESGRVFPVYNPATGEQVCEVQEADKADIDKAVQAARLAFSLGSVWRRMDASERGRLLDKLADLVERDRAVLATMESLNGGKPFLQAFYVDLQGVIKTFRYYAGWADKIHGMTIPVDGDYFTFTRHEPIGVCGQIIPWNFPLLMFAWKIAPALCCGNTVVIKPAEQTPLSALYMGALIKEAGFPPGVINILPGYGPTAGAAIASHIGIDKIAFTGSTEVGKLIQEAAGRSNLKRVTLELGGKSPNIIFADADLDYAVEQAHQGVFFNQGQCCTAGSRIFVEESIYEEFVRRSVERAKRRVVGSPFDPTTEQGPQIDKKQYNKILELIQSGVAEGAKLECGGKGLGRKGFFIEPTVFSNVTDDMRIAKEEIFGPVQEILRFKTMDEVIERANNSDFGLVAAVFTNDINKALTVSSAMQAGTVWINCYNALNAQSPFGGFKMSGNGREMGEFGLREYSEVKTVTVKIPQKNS
Protocol: Initially, the inhibitory activities of our fluorescent probes were screened at a fixed concentration of 50 μM using a Tecan Sunrise 96 Multiplate Reader with Greiner Bio-One 96-UV-Transparent Microplates. The analysis was performed in triplicate in a total volume of 100 μl per well containing 20 mM Tris HCl pH 8.0, 1 mM β-mercaptoethanol, 150 mM KCl, 500 μM NAD^+, […], 2.8 μM hALDH1A and 20 mM acetaldehyde. Afterwards, the inhibitory potency of the fluorescent probes was further investigated, evaluating the IC50 parameter. The enzymatic inhibition assays were performed in triplicate in a total volume of 100 μl per well containing 20 mM Tris HCl pH 8.0, 1 mM β-mercaptoethanol, 150 mM KCl, 500 μM NAD^+, 2.8 μM hALDH1A and 20 mM acetaldehyde in the presence of different probe concentrations, from 200 μM to 1.5625 μM. The DMSO final concentration allowed was up to 15%. Only for ALDH1A3 in complex with Probe 10, the Ki affinity parameter was calculated by performing the analysis in triplicate in a total volume of 100 μl per well containing 20 mM Tris HCl pH 8.0, 1 mM β-mercaptoethanol, 150 mM KCl, 500 μM NAD^+ and 2.8 μM ALDH1As. Due to chemical nature of Probe 10 and Probe 11, we set up the enzymatic assay assuming a competitive inhibition using different compounds concentration, from 200 μM to 1 μM, and different acetaldehyde concentrations, from 20 mM to 2.5 mM. Each reaction mix was preincubated for 10 min at 25 °C before the analysis. The catalytic activity was measured by monitoring the absorbance at 340 nm (εNADH = 6220 M^−^1 cm^−1) for 30 min at 25 °C and the inhibitory parameters were calculated by processing the raw data on SigmaPlot[53].

| Structure (SMILES) | labelling of the growing tumor in vivo [1] | solubility in physiological buffer [2] | fluorescence in cells ([3]; 2 h) | If ROI ([3]; 3060, 2 h (Fig. 5g)) | inhibition of ALDH1A2 (ALDH1A2) |
| --- | --- | --- | --- | --- | --- |
| COc1cc(/C=C/C(O)=C/C(=O)/C=C/c2ccc(OCc3cn(CCOc4ccc(C=O)cc4)nn3)c(OC)c2)ccc1O [Probe 10] | only Probe 10 was able to selectively label the growing tumor | highest solubility | can determine fluorescence | 254.68 a.u. and 232.45 a.u. and 200.36 a.u. and 210.52 a.u. and 200.45 a.u. | Neither of the two other isozymes were inhibited |
| CCOC(=O)Cn1cc(COc2ccc(/C=C/C(=O)/C=C(O)/C=C/c3ccc(O)c(OC)c3)cc2OC)nn1 [Probe 11] | does not penetrate to any appreciable level the tumor cells in vivo | highest solubility | – | – | no inhibitory effect |

— paper PMC9437101, “Curcumin-based-fluorescent probes targeting ALDH1A3 as a promising tool for glioblastoma precision surgery and early diagnosis” (Communications Biology, 2022)
